Like-named read-outs stand apart in the source and are kept apart here.
Assays:
[1] = tested on: HCC827 cells (EGFR delE746-A750); assay: Cell proliferation (CellTiter Glo, 72 hr), HCC827 cells; format: cell-based, human
Method: (§1) A431 human epidermoid carcinoma, H1975 human NSCLC and HCC827 human NSCLC adenocarcinoma cells were obtained from the American Type Culture Center (Manassas, Va.). A431 cells were grown in DMEM (Invitrogen, Carlsbad, Calif.) supplemented with 10% FBS (HyClone, South Logan, Utah) and 1% Penicillin-Streptomycin (P/S, Lonza, Walkersville, Md.).
(§2) Cells were plated in Growth Media supplemented with 5% FBS and 1% P/S at a density of 3,000 cells per well in 96 well tissue culture plates (Corning). […] Growth inhibition (GI50) values were determined by Graph Pad Prism.

[2] = molecular target: EGFR L858R/T790M (H1975 cells) (Homo sapiens (Human), UniProt P00533, L858R/T790M); assay: Phospho-EGFR signaling immunoblot (1 hr), H1975 cells; format: cell-based; conditions: WT EGFR (A431) vs H1975
Method: as §1
All primary antibodies were obtained from Cell Signaling (Danvers, Mass.) and used at 1:1000. Secondary antibodies were used at 1:10,000. Goat anti-mouse IgG IRDye 800CW antibody was obtained from LiCor Biosciences (Lincoln, Nebr.) and goat anti-rabbit IgG Alexa Fluor 680 was obtained from Invitrogen.
Cells were grown in 12-well plates (Corning, Coring, N.Y.) to 90% confluence and then incubated in low-serum (0.1% FBS) media for 16-18 hr. […] A431 cells were then stimulated with 50 ng/ml EGF (Peprotech, Rocky Hill, N.J.) for 15 min. After treatment, cell monolayers were washed with cold PBS (Invitrogen) and immediately lysed by scrapping into 60 uL cold Cell Extraction Buffer (Invitrogen) supplemented with Complete Protease inhibitors (Roche, Indianapolis, Ind.) and PhosphoSTOP (Roche) phosphatase inhibitors.
Phospho-protein signals were quantitated using Odyssey Infrared Imaging (Li-Cor Biosciences).
To assess phosphor-EGFR signaling, blots were probed with rabbit anti-Phospho-EGFR (Y1068) and mouse total anti-EGFR antibodies. Phospho-EGFR signal was normalized to total EGFR expression for each sample. […] Normalized data was fitted using a sigmoidal curve analysis program (Graph Pad Prism version 5) with variable Hill slope to determine the EC50 values.

[3] = tested on: H1975 cells (EGFR L858R/T790M); assay: Cell proliferation (CellTiter Glo, 72 hr), H1975 cells; format: cell-based, human
Method: as §1, §2

[4] = proliferation, WT EGFR (A431) vs HCC827
[5] = proliferation, WT EGFR (A431) vs H1975

| SMILES | Ratio WT/mutant [1, 4] | Ratio WT/mutant [2] | Ratio WT/mutant [3, 5] | Ratio WT/mutant [1] | Ratio WT/mutant [3] |
| --- | --- | --- | --- | --- | --- |
| C=CC(=O)Nc1cccc(Oc2nc(Nc3ccc(N4CCOCC4)cc3OC)ncc2C(F)(F)F)c1 [Compound I-1, N-(3-(2-(2-methoxy-4-morpholinophenylamino)-5-(trifluoromethyl)pyrimidin-4-yloxy)phenyl)acrylamide] | >15 | >50 | >15 | – | – |
| C=CC(=O)Nc1cccc(Oc2nc(Nc3ccc(N4CCN(C(=O)CO)CC4)cc3OC)ncc2Cl)c1 [Compound I-3, N-(3-(5-chloro-2-(4-(4-(2-hydroxyacetyl)piperazin-1-yl)-2-methoxyphenylamino)pyrimidin-4-yloxy)phenyl)acrylamide] | >45 | >5 | >5 | – | – |
| C=CC(=O)Nc1cccc(Oc2nc(Nc3ccc(N4CCOCC4)cc3OC)ncc2Cl)c1 [Compound I-5, N-(3-(5-chloro-2-(2-methoxy-4-morpholinophenylamino)pyrimidin-4-yloxy)phenyl)acrylamide] | >20 | >30 | >5 | – | – |
| C=CC(=O)Nc1cccc(Nc2nc(Nc3ccc(N4CCN(C(=O)CO)CC4)cc3OC)ncc2C(F)(F)F)c1 [Compound I-6, N-(3-(2-(4-(4-(2-hydroxyacetyl)piperazin-1-yl)-2-methoxyphenylamino)-5-(trifluoromethyl)pyrimidin-4-ylamino)phenyl)acrylamide] | >40 | >20 | >10 | – | – |
| C=CC(=O)Nc1cccc(Nc2nc(Nc3ccc(N4CCCN(C(C)=O)CC4)cc3OC)ncc2C(F)(F)F)c1 [Compound I-7, N-(3-(2-(4-(4-acetyl-1,4-diazepan-1-yl)-2-methoxyphenylamino)-5-(trifluoromethyl)pyrimidin-4-ylamino)phenyl)acrylamide] | >10 | >5 | >1 | – | – |
| C=CC(=O)Nc1cccc(Oc2nc(Nc3ccc(N4CCN(C(C)=O)CC4)cc3OC)ncc2Cl)c1 [Compound I-9, N-(3-(2-(4-(4-acetylpiperazin-1-yl)-2-methoxyphenylamino)-5-chloropyrimidin-4-yloxy)phenyl)acrylamide] | >50 | – | >5 | – | – |
| C=CC(=O)Nc1cccc(Oc2nc(Nc3ccc(N4CCN(C(C)=O)CC4)cc3OC)ncc2C(F)(F)F)c1 [Compound I-10, N-(3-(2-(4-(4-acetylpiperazin-1-yl)-2-methoxyphenylamino)-5-(trifluoromethyl)pyrimidin-4-yloxy)phenyl)acrylamide] | >20 | – | >1 | – | – |
| C=CC(=O)Nc1cccc(Oc2nc(Nc3ccc(N4CCOCC4)cc3OC(F)F)ncc2C(F)(F)F)c1 [Compound I-13, N-(3-(2-(2-(difluoromethoxy)-4-morpholinophenylamino)-5-(trifluoromethyl)pyrimidin-4-yloxy)phenyl)acrylamide] | >50 | – | >10 | – | – |
| C=CC(=O)Nc1cccc(Nc2nc(Nc3ccc(N4CCOCC4)cc3OC)ncc2Cl)c1 [Compound I-15, N-(3-(5-chloro-2-(2-methoxy-4-morpholinophenylamino)pyrimidin-4-ylamino)phenyl)acrylamide] | >10 | – | >1 | – | – |
| C=CC(=O)Nc1cccc(Oc2nc(Nc3ccc(N4CCN(C(=O)OC(C)(C)C)CC4)cc3OCC)ncc2Cl)c1 [Compound I-18, tert-butyl 4-(4-(4-(3-acrylamidophenoxy)-5-chloropyrimidin-2-ylamino)-3-ethoxyphenyl)piperazine-1-carboxylate] | >5 | – | >1 | – | – |
| C=CC(=O)Nc1cccc(Nc2nc(Nc3ccc(N4CCCN(C(=O)C(F)(F)F)CC4)cc3OC)ncc2C(F)(F)F)c1 [Compound I-19, N-(3-(2-(2-methoxy-4-(4-(2,2,2-trifluoroacetyl)-1,4-diazepan-1-yl)phenylamino)-5-(trifluoromethyl)pyrimidin-4-ylamino)phenyl)acrylamide] | >10 | – | >5 | – | – |
| C=CC(=O)Nc1cccc(Oc2nc(Nc3ccc(N4CCN(C(=O)OC)CC4)cc3OC)ncc2C(F)(F)F)c1 [Compound I-20, methyl 4-(4-(4-(3-acrylamidophenoxy)-5-(trifluoromethyl)pyrimidin-2-ylamino)-3-methoxyphenyl)piperazine-1-carboxylate] | – | – | – | >15 | >5 |
| C=CC(=O)Nc1cccc(Oc2nc(Nc3ccc(N4CCN(C(=O)CC(C)(C)C)CC4)cc3OC)ncc2Cl)c1 [Compound I-23, N-(3-(5-chloro-2-(4-(4-(3,3-dimethylbutanoyl)piperazin-1-yl)-2-methoxyphenylamino)pyrimidin-4-yloxy)phenyl)acrylamide] | >20 | – | >1 | – | – |
| C=CC(=O)Nc1cccc(Oc2nc(Nc3ccc(N4CCN(S(N)(=O)=O)CC4)cc3OC)ncc2C(F)(F)F)c1 [Compound I-27, N-(3-(2-(2-methoxy-4-(4-sulfamoylpiperazin-1-yl)phenylamino)-5-(trifluoromethyl)pyrimidin-4-yloxy)phenyl)acrylamide] | >10 | – | >1 | – | – |
| C=CC(=O)Nc1cccc(Nc2nc(Nc3ccc(N4CCN(C(=O)NC)CC4)cc3OC)ncc2C(F)(F)F)c1 [Compound I-28, 4-(4-(4-(3-acrylamidophenylamino)-5-(trifluoromethyl)pyrimidin-2-ylamino)-3-methoxyphenyl)-N-methylpiperazine-1-carboxamide] | >50 | – | >5 | – | – |
| C=CC(=O)Nc1cccc(Nc2nc(Nc3ccc(N4CCN(C(=O)OC)CC4)cc3OC)ncc2C(F)(F)F)c1 [Compound I-29, methyl 4-(4-(4-(3-acrylamidophenylamino)-5-(trifluoromethyl)pyrimidin-2-ylamino)-3-methoxyphenyl)piperazine-1-carboxylate] | >15 | – | >10 | – | – |
| C=CC(=O)Nc1cccc(Nc2nc(Nc3ccc(N4CCN(C(=O)CC)CC4)cc3OC)ncc2C(F)(F)F)c1 [Compound I-35, N-(3-(2-(2-methoxy-4-(4-propionylpiperazin-1-yl)phenylamino)-5-(trifluoromethyl)pyrimidin-4-ylamino)phenyl)acrylamide] | >25 | – | >10 | – | – |
| C=CC(=O)Nc1cccc(Oc2nc(Nc3ccc(N4CCOCC4)cc3OC(F)F)ncc2Cl)c1 [Compound I-36, N-(3-(5-chloro-2-(2-(difluoromethoxy)-4-morpholinophenylamino)pyrimidin-4-yloxy)phenyl)acrylamide] | >50 | – | >25 | – | – |
| C=CC(=O)Nc1cccc(Oc2nc(Nc3ccc(N4CCCOCC4)cc3OC)ncc2Cl)c1 [Compound I-37, N-(3-(5-chloro-2-(2-methoxy-4-(1,4-oxazepan-4-yl)phenylamino)pyrimidin-4-yloxy)phenyl)acrylamide] | >10 | – | >1 | – | – |
| C=CC(=O)Nc1cccc(Nc2nc(Nc3ccc(N4CCCOCC4)cc3OC)ncc2C(F)(F)F)c1 [Compound I-38, N-(3-(2-(2-methoxy-4-(1,4-oxazepan-4-yl)phenylamino)-5-(trifluoromethyl)pyrimidin-4-ylamino)phenyl)acrylamide] | >5 | – | >1 | – | – |
| C=CC(=O)Nc1cccc(Oc2nc(Nc3ccc(N4CCCN(C(=O)OC(C)(C)C)CC4)cc3OC)ncc2C(F)(F)F)c1 [Compound I-39, tert-butyl 4-(4-(4-(3-acrylamidophenoxy)-5-(trifluoromethyl)pyrimidin-2-ylamino)-3-methoxyphenyl)-1,4-diazepane-1-carboxylate] | >1 | – | <1 | – | – |
| C=CC(=O)Nc1cccc(Nc2nc(Nc3ccc(N4CCN(C(=O)OC(C)(C)C)[C@H](C(=O)OC)C4)cc3OC)ncc2C(F)(F)F)c1 [Compound I-50, (S)-1-tert-butyl 2-methyl 4-(4-(4-(3-acrylamidophenylamino)-5-(trifluoromethyl)pyrimidin-2-ylamino)-3-methoxyphenyl)piperazine-1,2-dicarboxylate] | >50 | – | >10 | – | – |

— patent publication US11096942B2, “Heterocyclic compounds and uses thereof” (Celgene CAR LLC, priority 2010, dated 2021)
